How the values were obtained:
rat A2A AR = rat A2A AR (Rattus norvegicus, UniProt P30543); test: Radioligand binding to rA2A AR
rA2A receptor = conditions: read-out: Ki at rA2A receptor; cited from earlier work

Sequence of rat A2A AR (P30543 whole entry): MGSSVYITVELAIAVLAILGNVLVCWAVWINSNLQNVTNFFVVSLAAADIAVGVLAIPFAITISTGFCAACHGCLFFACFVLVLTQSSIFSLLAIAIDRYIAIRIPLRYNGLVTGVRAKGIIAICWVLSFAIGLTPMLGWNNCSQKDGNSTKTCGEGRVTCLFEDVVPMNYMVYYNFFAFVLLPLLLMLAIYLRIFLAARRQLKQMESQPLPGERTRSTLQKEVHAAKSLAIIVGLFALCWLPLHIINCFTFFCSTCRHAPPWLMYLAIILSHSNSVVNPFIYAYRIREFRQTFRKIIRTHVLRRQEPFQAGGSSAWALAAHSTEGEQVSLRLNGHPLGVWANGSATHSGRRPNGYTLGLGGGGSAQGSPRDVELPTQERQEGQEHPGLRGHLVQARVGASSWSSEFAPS

| Ki (rat A2A AR) | Structure (SMILES) | Ki (rA2A receptor) |
| --- | --- | --- |
| 180 to 400 nM | CCCCCC(=O)Nc1nc(SC)nc2nc(-c3ccco3)nn12 [Compound 11, 2-(2-Furyl)-5-methylthio-7-n-pentylcarbonylamino-[1,2,4]-triazolo[1,5-a]-[1,3,5]triazine] | – |
| – | Nc1nc(NCCc2ccc(O)cc2)nc2nc(-c3ccco3)nn12 [ZM241385, 4-(2-[7-amino-2-{2-furyl}{1,2,4}triazolo{2,3-a}{1,3,5,}triazin-5-ylamino]ethyl)phenol] | 0.21 to 0.5 nM |

Reference: paper PMC3106415 (Bioorganic & medicinal chemistry, 2010)
